Legend:
[1] = biological target: T1, human recombinant TDO2 enzyme (Homo sapiens, UniProt P48775); assay: Assay for TDO2 enzymatic activity determination; assay type: biochemical; settings: human recombinant TDO2, L-Trp 1 mM, room temperature one hour, kynurenine absorbance at 480 nm
T1 construct: made in house
Method: To measure the TDO2 activity, the reaction mixture contained (final concentrations) potassium phosphate buffer (50 mM, pH 7.5), ascorbic acid (0.25 M), methylene blue (0.125 μM), catalase (40 units/mL, from bovine liver, Sigma), and human recombinant TDO2 enzyme (prepared as described in Dolusic et al. J. Med. Chem.; 2011, 54, 5320-5334; 0.9 μg) without or with the compounds of the present invention embodiments at the indicated concentrations (total volume 112.5 μL). The reaction was initiated by the addition of 37.5 μL of L-Trp (final concentration 1 mM) at room temperature. The reaction was conducted at room temperature during one hour and stopped by the addition of 30 μL of 30% (w/v) trichloroacetic acid.
To convert N-formylkynurenine into kynurenine, the reaction mixture was incubated at 65° C. for 30 min. Then 150 μL of the reaction mixture was mixed with 120 μL, of 2.5% (w/v) 4-(dimethylamino)-benzaldehyde in acetic acid and incubated for 5 min at room temperature. Kynurenine concentrations were determined by measuring the absorbance at 480 nm. A standard curve was made with pure kynurenine. The TDO activity was measured as described above using ten serial concentrations of certain embodiments of the compounds of the present invention. Data were fitted using the Prism software (GraphPad Software, Inc.).

[2] = biological target: T2, murine mastocytoma P815 cells overexpressing hTDO2 (Homo sapiens, UniProt P48775); assay: Cellular assay for TDO2 activity determination; assay type: cell-based; settings: P815 cells overexpressing hTDO2, overnight incubation at 37° C., kynurenine absorbance at 480 nm
T2 construct: expressed in transfected cells; host or cells: murine mastocytoma P815 cells
T2 sequence (P48775 whole entry): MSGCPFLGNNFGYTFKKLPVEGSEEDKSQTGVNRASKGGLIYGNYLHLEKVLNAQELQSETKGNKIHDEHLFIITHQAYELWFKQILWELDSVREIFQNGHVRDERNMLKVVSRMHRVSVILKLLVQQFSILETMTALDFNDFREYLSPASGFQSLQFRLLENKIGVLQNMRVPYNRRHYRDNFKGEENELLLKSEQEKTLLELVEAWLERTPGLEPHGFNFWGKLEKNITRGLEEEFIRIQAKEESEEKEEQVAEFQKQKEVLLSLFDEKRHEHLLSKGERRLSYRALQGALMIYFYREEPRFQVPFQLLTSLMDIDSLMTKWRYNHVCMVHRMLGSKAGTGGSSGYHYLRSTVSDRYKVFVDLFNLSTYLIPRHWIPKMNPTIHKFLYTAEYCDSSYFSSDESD
Method: The assay was performed in 96-well flat bottom plates seeded with murine mastocytoma P815 cells overexpressing hTDO2 (prepared as described in Pilotte et al., PNAS, 2012, 109(7), 2497-2502), at a concentration of 5×10^4 cells/well in a final volume of 200 μL. To determine TDO or IDO activity, the cells were incubated overnight at 37° C. at 5% CO2 in IMDM (Invitrogen) supplemented with 2% FBS and 2% penicillin/streptomycin in the presence of the compounds of the present invention, at different concentrations.
The plates were then centrifuged 5 min at 1000 rpm, and 100 μL of the supernatant were collected in a conical plate, 30 uL of TCA 30% were added and a further centrifugated at 3000×g for 10 minutes. 100 μL of the supernatant were collected in a flat bottomed plate and 100 μL of 2% (w/v) 4-(dimethylamino)-benzaldehyde in acetic acid and incubated for 5 min at room temperature. Kynurenine concentrations were determined by measuring the absorbance at 480 nm. A standard curve was made with pure kynurenine. The TDO activity was measured as described above using ten serial concentrations of the compounds of the present invention. Data were fitted using the Prism software (GraphPad Software, Inc.).

T1 sequence (P48775 whole entry): as above

IC50 [1]	IC50 [2]	SMILES
1 to 10 µM	< 1 µM	CC(Cn1cc(-c2c[nH]c3cc(F)ccc23)cn1)C(N)=O (single isomer, unassigned) [Example 36, 3-(4-(6-fluoro-1H-indol-3-yl)-1H-pyrazol-1-yl)-2-methylpropanamide]
1 to 10 µM	< 1 µM	Cc1c(-c2c[nH]c3cc(F)ccc23)cnn1C (single isomer, unassigned) [Example 74, 3-(1,5-dimethyl-1H-pyrazol-4-yl)-6-fluoro-1H-indole]
< 1 µM	< 1 µM	Fc1ccc2c(-c3cnn(C4CNC4)c3)c[nH]c2c1 [Example 2, 3-(1-(azetidin-3-yl)-1H-pyrazol-4-yl)-6-fluoro-1H-indole]
1 to 10 µM		CC(=O)N1CC(n2cc(-c3c[nH]c4cc(F)ccc34)cn2)C1 [Example 3, 1-(3-(4-(6-fluoro-1H-indol-3-yl)-1H-pyrazol-1-yl)azetidin-1-yl)ethanone]
1 to 10 µM		NC(=O)N1CC(n2cc(-c3c[nH]c4cc(F)ccc34)cn2)C1 [Example 4, 3-(4-(6-fluoro-1H-indol-3-yl)-1H-pyrazol-1-yl)azetidine-1-carboxamide]
1 to 10 µM		CNC(=O)N1CC(n2cc(-c3c[nH]c4cc(F)ccc34)cn2)C1 [Example 5, 3-(4-(6-fluoro-1H-indol-3-yl)-1H-pyrazol-1-yl)-N-methylazetidine-1-carboxamide]
< 1 µM	< 1 µM	Fc1ccc2c(-c3cnn(CC4CNC4)c3)c[nH]c2c1 [Example 6, 3-(1-(azetidin-3-ylmethyl)-1H-pyrazol-4-yl)-6-fluoro-1H-indole]
1 to 10 µM		CN(C)CCNC(=O)CCn1cc(-c2c[nH]c3cc(F)ccc23)cn1 [Example 13, N-(2-(dimethylamino)ethyl)-3-(4-(6-fluoro-1H-indol-3-yl)-1H-pyrazol-1-yl)propanamide]
1 to 10 µM		CNC(=O)CCn1cc(-c2c[nH]c3cc(F)ccc23)cn1 [Example 14, 3-(4-(6-fluoro-1H-indol-3-yl)-1H-pyrazol-1-yl)-N-methylpropanamide]
1 to 10 µM		CN(C)C(=O)CCn1cc(-c2c[nH]c3cc(F)ccc23)cn1 [Example 15, 3-(4-(6-fluoro-1H-indol-3-yl)-1H-pyrazol-1-yl)-N,N-dimethylpropanamide]
1 to 10 µM		O=C(O)CCn1cc(-c2c[nH]c3cc(F)ccc23)cn1 [Example 16, 3-(4-(6-fluoro-1H-indol-3-yl)-1H-pyrazol-1-yl)propanoic acid]
10 to 100 µM		O=C(O)CCn1cc(-c2c[nH]c3cc(F)c(F)cc23)cn1 [Example 17, 3-(4-(5,6-difluoro-1H-indol-3-yl)-1H-pyrazol-1-yl)propanoic acid]
1 to 10 µM		O=C1NCCN1CCn1cc(-c2c[nH]c3cc(F)ccc23)cn1 [Example 18, 1-(2-(4-(6-fluoro-1H-indol-3-yl)-1H-pyrazol-1-yl)ethyl)imidazolidin-2-one]
1 to 10 µM	< 1 µM	CN1CCN(CCn2cc(-c3c[nH]c4cc(F)ccc34)cn2)CC1 [Example 19, 6-fluoro-3-(1-(2-(4-methylpiperazin-1-yl)ethyl)-1H-pyrazol-4-yl)-1H-indole]
1 to 10 µM	1 to 10 µM	Fc1ccc2c(-c3cnn(CCN4CCOCC4)c3)c[nH]c2c1 [Example 20, 4-(2-(4-(6-fluoro-1H-indol-3-yl)-1H-pyrazol-1-yl)ethyl)morpholine]
1 to 10 µM	1 to 10 µM	NC(=O)NCCn1cc(-c2c[nH]c3cc(F)ccc23)cn1 [Example 22, 1-(2-(4-(6-fluoro-1H-indol-3-yl)-1H-pyrazol-1-yl)ethyl)urea]
1 to 10 µM		CNC(=O)NCCn1cc(-c2c[nH]c3cc(F)ccc23)cn1 [Example 23, 1-(2-(4-(6-fluoro-1H-indol-3-yl)-1H-pyrazol-1-yl)ethyl)-3-methylurea]
1 to 10 µM	< 1 µM	CS(=O)(=O)NCCn1cc(-c2c[nH]c3cc(F)ccc23)cn1 [Example 25, N-(2-(4-(6-fluoro-1H-indol-3-yl)-1H-pyrazol-1-yl)ethyl)methanesulfonamide]

IC50 [1]	IC50 [2]	SMILES
< 1 µM	< 1 µM	OCCn1cc(-c2c[nH]c3cc(F)ccc23)cn1 [Example 26, 2-(4-(6-fluoro-1H-indol-3-yl)-1H-pyrazol-1-yl)ethanol]
1 to 10 µM	< 1 µM	Fc1ccc2c(-c3cnn(CCN4CCNCC4)c3)c[nH]c2c1 [Example 27, 6-fluoro-3-(1-(2-(piperazin-1-yl)ethyl)-1H-pyrazol-4-yl)-1H-indole]
10 to 100 µM		CC(=O)N1CCN(CCn2cc(-c3c[nH]c4cc(F)ccc34)cn2)CC1 [Example 28, 1-(4-(2-(4-(6-fluoro-1H-indol-3-yl)-1H-pyrazol-1-yl)ethyl)piperazin-1-yl)ethanone]
1 to 10 µM		O=C1CCCN1CCn1cc(-c2c[nH]c3cc(F)ccc23)cn1 [Example 30, 1-(2-(4-(6-fluoro-1H-indol-3-yl)-1H-pyrazol-1-yl)ethyl)pyrrolidin-2-one]
10 to 100 µM		O=C(O)Cn1cc(-c2c[nH]c3cc(F)ccc23)cn1 [Example 41, 2-(4-(6-fluoro-1H-indol-3-yl)-1H-pyrazol-1-yl)acetic acid]
1 to 10 µM		COC(=O)Cn1cc(-c2c[nH]c3cc(F)ccc23)cn1 [Example 42, methyl 2-(4-(6-fluoro-1H-indol-3-yl)-1H-pyrazol-1-yl)acetate]
1 to 10 µM		Fc1ccc2c(-c3cnn(CC4CCN(CC(F)(F)F)CC4)c3)c[nH]c2c1 [Example 45, 6-fluoro-3-(1-((1-(2,2,2-trifluoroethyl)piperidin-4-yl)methyl)-1H-pyrazol-4-yl)-1H-indole]
1 to 10 µM		O=C(O)CN1CCC(Cn2cc(-c3c[nH]c4cc(F)ccc34)cn2)CC1 [Example 49, 2-(4-((4-(6-fluoro-1H-indol-3-yl)-1H-pyrazol-1-yl)methyl)piperidin-1-yl)acetic acid]
10 to 100 µM		O=C(O)CCC(=O)N1CCC(Cn2cc(-c3c[nH]c4cc(F)ccc34)cn2)CC1 [Example 50, 4-(4-((4-(6-fluoro-1H-indol-3-yl)-1H-pyrazol-1-yl)methyl)piperidin-1-yl)-4-oxobutanoic acid]
1 to 10 µM		CNC(=O)[C@H]1C[C@@H](n2cc(-c3c[nH]c4cc(F)ccc34)cn2)C1 [Example 63, (1S,3S)-3-(4-(6-fluoro-1H-indol-3-yl)-1H-pyrazol-1-yl)-N-methylcyclobutanecarboxamide]
1 to 10 µM		CNC(=O)[C@H]1C[C@H](n2cc(-c3c[nH]c4cc(F)ccc34)cn2)C1 [Example 64, (1R,3R)-3-(4-(6-fluoro-1H-indol-3-yl)-1H-pyrazol-1-yl)-N-methylcyclobutanecarboxamide]
10 to 100 µM		O=C(O)[C@H]1C[C@@H](n2cc(-c3c[nH]c4cc(F)ccc34)cn2)C1 [Example 65, (1S,3S)-3-(4-(6-fluoro-1H-indol-3-yl)-1H-pyrazol-1-yl)cyclobutanecarboxylic acid]
10 to 100 µM		O=C(O)[C@H]1C[C@H](n2cc(-c3c[nH]c4cc(F)ccc34)cn2)C1 [Example 66, (1R,3R)-3-(4-(6-fluoro-1H-indol-3-yl)-1H-pyrazol-1-yl)cyclobutanecarboxylic acid]
10 to 100 µM		FC(F)(F)c1ccc2c(-c3cn[nH]c3)c[nH]c2c1 [Example 72, 3-(1H-pyrazol-4-yl)-6-(trifluoromethyl)-1H-indole]
1 to 10 µM		OCCN1CCC(n2cc(-c3c[nH]c4cc(F)ccc34)cn2)CC1 [Example 79, 2-(4-(4-(6-fluoro-1H-indol-3-yl)-1H-pyrazol-1-yl)piperidin-1-yl)ethanol]
1 to 10 µM		COCCC(=O)N1CCC(n2cc(-c3c[nH]c4cc(F)ccc34)cn2)CC1 [Example 81, 1-(4-(4-(6-fluoro-1H-indol-3-yl)-1H-pyrazol-1-yl)piperidin-1-yl)-3-methoxypropan-1-one]
1 to 10 µM		CCC(=O)N1CCC(n2cc(-c3c[nH]c4cc(F)ccc34)cn2)CC1 [Example 82, 1-(4-(4-(6-fluoro-1H-indol-3-yl)-1H-pyrazol-1-yl)piperidin-1-yl)propan-1-one]
10 to 100 µM		Fc1ccc2c(-c3cnn(-c4ccc(Cl)nn4)c3)c[nH]c2c1 [Example 108, 3-(1-(6-chloropyridazin-3-yl)-1H-pyrazol-4-yl)-6-fluoro-1H-indole]

Reference: patent US9126984B2, “4-(indol-3-yl)-pyrazole derivatives, pharmaceutical compositions and methods for use” (ITEOS THERAPEUTICS, priority 2013, dated 2015)
